Measurements as given in patent US11945813B2, “5-substituted 4-amino-1H-benzo[c][1,2,6]thiadiazine 2,2-dioxides and formulations and uses thereof” (Firmenich Incorporated, priority 2018, dated 2024).

Target: T1, T1R2/T1R3 taste receptor (Homo sapiens, UniProt Q8TE23)
T1 sequence (Q8TE23 20-839): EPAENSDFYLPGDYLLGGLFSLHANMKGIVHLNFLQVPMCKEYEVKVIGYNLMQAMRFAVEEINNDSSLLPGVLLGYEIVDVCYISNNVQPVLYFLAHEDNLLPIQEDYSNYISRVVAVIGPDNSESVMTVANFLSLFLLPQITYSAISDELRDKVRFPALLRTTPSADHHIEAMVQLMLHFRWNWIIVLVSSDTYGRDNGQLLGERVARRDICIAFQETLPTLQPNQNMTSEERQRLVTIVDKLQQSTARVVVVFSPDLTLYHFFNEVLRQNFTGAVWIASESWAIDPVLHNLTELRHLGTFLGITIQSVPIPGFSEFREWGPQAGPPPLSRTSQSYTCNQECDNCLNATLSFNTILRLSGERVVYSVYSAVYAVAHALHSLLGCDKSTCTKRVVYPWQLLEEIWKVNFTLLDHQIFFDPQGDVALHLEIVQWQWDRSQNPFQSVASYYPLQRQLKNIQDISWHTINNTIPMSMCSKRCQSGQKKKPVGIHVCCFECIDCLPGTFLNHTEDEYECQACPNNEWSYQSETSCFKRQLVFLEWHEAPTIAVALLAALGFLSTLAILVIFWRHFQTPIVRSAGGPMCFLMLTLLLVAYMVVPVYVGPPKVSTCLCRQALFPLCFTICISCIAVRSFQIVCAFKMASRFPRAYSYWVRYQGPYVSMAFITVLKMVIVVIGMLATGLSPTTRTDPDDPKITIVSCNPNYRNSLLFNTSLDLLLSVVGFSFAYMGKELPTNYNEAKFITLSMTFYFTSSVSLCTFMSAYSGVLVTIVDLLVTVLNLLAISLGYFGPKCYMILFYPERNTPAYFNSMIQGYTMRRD
T1 sequence (Q7RTX0 21-852 partner): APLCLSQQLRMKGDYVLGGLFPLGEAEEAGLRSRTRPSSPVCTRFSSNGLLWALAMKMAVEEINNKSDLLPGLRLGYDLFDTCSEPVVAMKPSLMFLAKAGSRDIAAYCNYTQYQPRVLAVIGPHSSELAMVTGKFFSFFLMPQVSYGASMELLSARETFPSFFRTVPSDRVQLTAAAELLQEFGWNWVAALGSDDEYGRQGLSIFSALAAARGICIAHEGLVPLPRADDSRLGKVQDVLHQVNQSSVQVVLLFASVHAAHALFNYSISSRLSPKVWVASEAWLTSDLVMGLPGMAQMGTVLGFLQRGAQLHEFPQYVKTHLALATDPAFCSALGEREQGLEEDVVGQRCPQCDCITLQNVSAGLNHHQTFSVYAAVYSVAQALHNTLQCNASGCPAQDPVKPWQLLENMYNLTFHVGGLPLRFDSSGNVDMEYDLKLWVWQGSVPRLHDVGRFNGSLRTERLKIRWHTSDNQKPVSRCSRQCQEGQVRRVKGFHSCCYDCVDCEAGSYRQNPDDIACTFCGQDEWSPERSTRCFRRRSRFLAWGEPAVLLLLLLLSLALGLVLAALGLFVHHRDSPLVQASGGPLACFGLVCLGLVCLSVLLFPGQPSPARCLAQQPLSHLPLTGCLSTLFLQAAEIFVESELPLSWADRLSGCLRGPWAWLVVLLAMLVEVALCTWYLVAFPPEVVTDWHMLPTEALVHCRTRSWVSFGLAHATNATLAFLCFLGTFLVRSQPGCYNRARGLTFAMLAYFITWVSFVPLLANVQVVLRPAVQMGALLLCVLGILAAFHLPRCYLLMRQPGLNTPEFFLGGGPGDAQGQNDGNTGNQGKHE
Assay: Receptor-based assay: sweetener EC50 alone and with test compound (enhancement ratio)
Type: cell-based
Conditions: for Fructose Enhancement EC50 Ratio: sweetener fructose; for Sucralose Enhancement EC50 Ratio: sweetener sucralose; for Sucrose Enhancement EC50 Ratio: sweetener sucrose
Description: Potencies (EC50 values) for the sweeteners sucrose, sucralose, and fructose were measured against the T1R2/T1R3 taste receptor. EC50 was determined using the sweetener alone and in the presence of 3 μM, 10 μM, or 50 μM of test compound. EC50 ratios were calculated by the ratio of potency with and without the test compound. An “A” value indicates an enhancement ratio of greater than 20. A “B” value indicates an enhancement ratio from 10 to 20. A “C” value indicates an enhancement ratio greater than 1 and less than 10.

Structure (SMILES)	Fructose Enhancement EC50 Ratio (10 μM test compound)	Fructose Enhancement EC50 Ratio (50 μM test compound)	Sucralose Enhancement EC50 Ratio (10 μM test compound)	Sucrose Enhancement EC50 Ratio (3 μM test compound)	Sucrose Enhancement EC50 Ratio (10 μM test compound)	Sucrose Enhancement EC50 Ratio (50 μM test compound)	Sucralose Enhancement EC50 Ratio (50 μM test compound)
NC1=NS(=O)(=O)Nc2cccc(OC[C@H]3CCCN(c4cc(C(=O)NCCO)ccn4)C3)c21 [Compound 603]	C (A “C” value indicates an enhancement ratio greater than 1 and less than 10)	C (A “C” value indicates an enhancement ratio greater than 1 and less than 10)	A (An “A” value indicates an enhancement ratio of greater than 20)	C (A “C” value indicates an enhancement ratio greater than 1 and less than 10)	B (A “B” value indicates an enhancement ratio from 10 to 20)	C (A “C” value indicates an enhancement ratio greater than 1 and less than 10)	
CN(C)C(=O)c1cccc(N2CCC[C@H](COc3cccc4c3C(N)=NS(=O)(=O)N4)C2)n1 [Compound 410]		C (A “C” value indicates an enhancement ratio greater than 1 and less than 10)	B (A “B” value indicates an enhancement ratio from 10 to 20)	C (A “C” value indicates an enhancement ratio greater than 1 and less than 10)	B (A “B” value indicates an enhancement ratio from 10 to 20)	B (A “B” value indicates an enhancement ratio from 10 to 20)	A (An “A” value indicates an enhancement ratio of greater than 20)
NC1=NS(=O)(=O)Nc2cccc(OC[C@H]3CCCN(c4cccc(C(=O)NC5CC5)n4)C3)c21 [Compound 400, (S)-6-(3-(((4-amino-2,2-dioxido-1H-benzo[c][1,2,6]thiadiazin-5-yl)oxy)methyl)piperidin-1-yl)-N-cyclopropylpicolinamide]	C (A “C” value indicates an enhancement ratio greater than 1 and less than 10)	C (A “C” value indicates an enhancement ratio greater than 1 and less than 10)	A (An “A” value indicates an enhancement ratio of greater than 20)	C (A “C” value indicates an enhancement ratio greater than 1 and less than 10)	C (A “C” value indicates an enhancement ratio greater than 1 and less than 10)	B (A “B” value indicates an enhancement ratio from 10 to 20)	A (An “A” value indicates an enhancement ratio of greater than 20)
NC1=NS(=O)(=O)Nc2cccc(OC[C@H]3CCCN(c4ccc(C(=O)NCC5CCCCC5)cn4)C3)c21 [Compound 517]			C (A “C” value indicates an enhancement ratio greater than 1 and less than 10)	C (A “C” value indicates an enhancement ratio greater than 1 and less than 10)	C (A “C” value indicates an enhancement ratio greater than 1 and less than 10)	C (A “C” value indicates an enhancement ratio greater than 1 and less than 10)	B (A “B” value indicates an enhancement ratio from 10 to 20)
CN(C)CCNC(=O)c1cccc(N2CCC[C@H](COc3cccc4c3C(N)=NS(=O)(=O)N4)C2)n1 [Compound 406]	C (A “C” value indicates an enhancement ratio greater than 1 and less than 10)	C (A “C” value indicates an enhancement ratio greater than 1 and less than 10)	A (An “A” value indicates an enhancement ratio of greater than 20)	C (A “C” value indicates an enhancement ratio greater than 1 and less than 10)	B (A “B” value indicates an enhancement ratio from 10 to 20)	B (A “B” value indicates an enhancement ratio from 10 to 20)	
NC1=NS(=O)(=O)Nc2cccc(OC[C@H]3CCCN(c4ccc(C(=O)N5CCCC5)cn4)C3)c21 [Compound 512]		C (A “C” value indicates an enhancement ratio greater than 1 and less than 10)	A (An “A” value indicates an enhancement ratio of greater than 20)	C (A “C” value indicates an enhancement ratio greater than 1 and less than 10)	C (A “C” value indicates an enhancement ratio greater than 1 and less than 10)	C (A “C” value indicates an enhancement ratio greater than 1 and less than 10)	A (An “A” value indicates an enhancement ratio of greater than 20)
NC1=NS(=O)(=O)Nc2cccc(OC[C@H]3CCCN(c4cccc(C(=O)N5CCCCC5)n4)C3)c21 [Compound 413]		C (A “C” value indicates an enhancement ratio greater than 1 and less than 10)	B (A “B” value indicates an enhancement ratio from 10 to 20)	C (A “C” value indicates an enhancement ratio greater than 1 and less than 10)	C (A “C” value indicates an enhancement ratio greater than 1 and less than 10)	C (A “C” value indicates an enhancement ratio greater than 1 and less than 10)	A (An “A” value indicates an enhancement ratio of greater than 20)
CCN(CC)C(=O)c1cccc(N2CCC[C@H](COc3cccc4c3C(N)=NS(=O)(=O)N4)C2)n1 [Compound 411]			B (A “B” value indicates an enhancement ratio from 10 to 20)	C (A “C” value indicates an enhancement ratio greater than 1 and less than 10)	C (A “C” value indicates an enhancement ratio greater than 1 and less than 10)		
CC(C)(COc1cccc2c1C(N)=NS(=O)(=O)N2)Nc1ncccn1 [Compound 102]	C (A “C” value indicates an enhancement ratio greater than 1 and less than 10)		A (An “A” value indicates an enhancement ratio of greater than 20)		C (A “C” value indicates an enhancement ratio greater than 1 and less than 10)	B (A “B” value indicates an enhancement ratio from 10 to 20)	A (An “A” value indicates an enhancement ratio of greater than 20)
NC1=NS(=O)(=O)Nc2cccc(OC[C@H]3CCCN(c4ccc(C(=O)NCC5CC5)cn4)C3)c21 [Compound 516]		C (A “C” value indicates an enhancement ratio greater than 1 and less than 10)	A (An “A” value indicates an enhancement ratio of greater than 20)	C (A “C” value indicates an enhancement ratio greater than 1 and less than 10)	C (A “C” value indicates an enhancement ratio greater than 1 and less than 10)	C (A “C” value indicates an enhancement ratio greater than 1 and less than 10)	A (An “A” value indicates an enhancement ratio of greater than 20)
CCNC(=O)c1cccc(N2CCC[C@H](COc3cccc4c3C(N)=NS(=O)(=O)N4)C2)n1 [Compound 402]			A (An “A” value indicates an enhancement ratio of greater than 20)	C (A “C” value indicates an enhancement ratio greater than 1 and less than 10)	C (A “C” value indicates an enhancement ratio greater than 1 and less than 10)	C (A “C” value indicates an enhancement ratio greater than 1 and less than 10)	A (An “A” value indicates an enhancement ratio of greater than 20)
